Source: PubChem BioAssay (NCI)
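In this assay, cells in 96-well plates receive the compound at five concentrations for 48 hours. Endpoints are linearly interpolated between the surrounding concentrations. Definition used: TGI = concentration required for complete inhibition of growth.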

Assays:
Assay in all cases: NCI-60 cell line screen, 48 h
HCT-15 colon = tested on: HCT-15 colon
SF-295 CNS = tested on: SF-295 CNS
M14 melanoma = tested on: M14 melanoma
SN12C renal = tested on: SN12C renal
COLO 205 colon = tested on: COLO 205 colon
OVCAR-8 ovarian = tested on: OVCAR-8 ovarian
NCI-H522 lung = tested on: NCI-H522 lung
HT29 colon = tested on: HT29 colon
SNB-75 CNS = tested on: SNB-75 CNS
DLD-1 colon = tested on: DLD-1 colon
TK-10 renal = tested on: TK-10 renal
RXF 393 renal = tested on: RXF 393 renal
K-562 leukemia = tested on: K-562 leukemia
HOP-92 NSCLC = tested on: HOP-92 NSCLC
DMS 273 small cell lung = tested on: DMS 273 small cell lung
A498 renal = tested on: A498 renal
MOLT-4 leukemia = tested on: MOLT-4 leukemia
UACC-62 melanoma = tested on: UACC-62 melanoma
SK-OV-3 ovarian = tested on: SK-OV-3 ovarian
UO-31 renal = tested on: UO-31 renal
SW-620 colon = tested on: SW-620 colon
LXFL 529 NSCLC = tested on: LXFL 529 NSCLC
NCI-H460 lung = tested on: NCI-H460 lung
SK-MEL-5 melanoma = tested on: SK-MEL-5 melanoma
RXF-631 renal = tested on: RXF-631 renal
SNB-19 CNS = tested on: SNB-19 CNS
HCT-116 colon = tested on: HCT-116 colon
SNB-78 CNS = tested on: SNB-78 CNS
NCI-H226 lung = tested on: NCI-H226 lung
OVCAR-3 ovarian = tested on: OVCAR-3 ovarian
HOP-18 NSCLC = tested on: HOP-18 NSCLC
A549 NSCLC = tested on: A549 NSCLC
IGROV1 ovarian = tested on: IGROV1 ovarian
SK-MEL-28 melanoma = tested on: SK-MEL-28 melanoma
U251 CNS = tested on: U251 CNS
ACHN renal = tested on: ACHN renal
HCC-2998 colon = tested on: HCC-2998 colon
LOX IMVI melanoma = tested on: LOX IMVI melanoma
UACC-257 melanoma = tested on: UACC-257 melanoma
CAKI-1 renal = tested on: CAKI-1 renal
CCRF-CEM leukemia = tested on: CCRF-CEM leukemia
EKVX NSCLC = tested on: EKVX NSCLC
RPMI-8226 leukemia = tested on: RPMI-8226 leukemia
786-0 renal = tested on: 786-0 renal
SF-539 CNS = tested on: SF-539 CNS
MALME-3M melanoma = tested on: MALME-3M melanoma
NCI-H23 lung = tested on: NCI-H23 lung
M19-MEL melanoma = tested on: M19-MEL melanoma
KM12 colon = tested on: KM12 colon
HOP-62 NSCLC = tested on: HOP-62 NSCLC
KM20L2 colon = tested on: KM20L2 colon
OVCAR-4 ovarian = tested on: OVCAR-4 ovarian
SR leukemia = tested on: SR leukemia
SF-268 CNS = tested on: SF-268 CNS
SK-MEL-2 melanoma = tested on: SK-MEL-2 melanoma
DMS 114 small cell lung = tested on: DMS 114 small cell lung
OVCAR-5 ovarian = tested on: OVCAR-5 ovarian
HL-60(TB) leukemia = tested on: HL-60(TB) leukemia

CN[C@@H](C)[C@@H](N)c1ccccc1
TGI (HCT-15 colon): > 100 µM
TGI (SF-295 CNS): > 100 µM
TGI (M14 melanoma): > 100 µM
TGI (SN12C renal): > 100 µM
TGI (COLO 205 colon): > 100 µM
TGI (OVCAR-8 ovarian): > 100 µM
TGI (NCI-H522 lung): > 100 µM
TGI (HT29 colon): > 100 µM
TGI (SNB-75 CNS): > 100 µM
TGI (DLD-1 colon): > 100 µM
TGI (TK-10 renal): > 100 µM
TGI (RXF 393 renal): > 100 µM
TGI (K-562 leukemia): > 100 µM
TGI (HOP-92 NSCLC): > 100 µM
TGI (DMS 273 small cell lung): > 100 µM
TGI (A498 renal): > 100 µM
TGI (MOLT-4 leukemia): > 100 µM
TGI (UACC-62 melanoma): > 100 µM
TGI (SK-OV-3 ovarian): > 100 µM
TGI (UO-31 renal): > 100 µM
TGI (SW-620 colon): > 100 µM
TGI (LXFL 529 NSCLC): > 100 µM
TGI (NCI-H460 lung): > 100 µM
TGI (SK-MEL-5 melanoma): > 100 µM
TGI (RXF-631 renal): > 100 µM
TGI (SNB-19 CNS): > 100 µM
TGI (HCT-116 colon): > 100 µM
TGI (SNB-78 CNS): > 100 µM
TGI (NCI-H226 lung): > 100 µM
TGI (OVCAR-3 ovarian): > 100 µM
TGI (HOP-18 NSCLC): > 100 µM
TGI (A549 NSCLC): > 100 µM
TGI (IGROV1 ovarian): > 100 µM
TGI (SK-MEL-28 melanoma): > 100 µM
TGI (U251 CNS): > 100 µM
TGI (ACHN renal): > 100 µM
TGI (HCC-2998 colon): > 100 µM
TGI (LOX IMVI melanoma): > 100 µM
TGI (UACC-257 melanoma): > 100 µM
TGI (CAKI-1 renal): > 100 µM
TGI (CCRF-CEM leukemia): > 100 µM
TGI (EKVX NSCLC): > 100 µM
TGI (RPMI-8226 leukemia): > 100 µM
TGI (786-0 renal): > 100 µM
TGI (SF-539 CNS): > 100 µM
TGI (MALME-3M melanoma): > 100 µM
TGI (NCI-H23 lung): > 100 µM

Cc1ccc(S(=O)(=O)N/N=c2\c(C)c(C3=NS(=O)(=O)c4cc(S(N)(=O)=O)c(Cl)cc4N3)oc3c(Cl)cc(Cl)cc23)cc1
TGI (HCT-15 colon): > 100 µM
TGI (SF-295 CNS): > 100 µM
TGI (M14 melanoma): > 100 µM
TGI (SN12C renal): > 100 µM
TGI (COLO 205 colon): 47.8 µM
TGI (OVCAR-8 ovarian): > 100 µM
TGI (HT29 colon): > 100 µM
TGI (SNB-75 CNS): > 100 µM
TGI (M19-MEL melanoma): > 100 µM
TGI (DLD-1 colon): > 100 µM
TGI (KM12 colon): > 100 µM
TGI (TK-10 renal): > 100 µM
TGI (RXF 393 renal): > 100 µM
TGI (K-562 leukemia): > 100 µM
TGI (HOP-92 NSCLC): > 100 µM
TGI (DMS 273 small cell lung): 54 µM
TGI (A498 renal): > 100 µM
TGI (MOLT-4 leukemia): > 100 µM
TGI (UACC-62 melanoma): > 100 µM
TGI (HOP-62 NSCLC): > 100 µM
TGI (SK-OV-3 ovarian): > 100 µM
TGI (KM20L2 colon): > 100 µM
TGI (UO-31 renal): > 100 µM
TGI (SW-620 colon): 22.9 µM
TGI (OVCAR-4 ovarian): > 100 µM
TGI (LXFL 529 NSCLC): > 100 µM
TGI (NCI-H460 lung): > 100 µM
TGI (SK-MEL-5 melanoma): > 100 µM
TGI (SR leukemia): > 100 µM
TGI (SF-268 CNS): > 100 µM
TGI (RXF-631 renal): > 100 µM
TGI (SNB-19 CNS): > 100 µM
TGI (HCT-116 colon): > 100 µM
TGI (SNB-78 CNS): > 100 µM
TGI (NCI-H226 lung): > 100 µM
TGI (OVCAR-3 ovarian): > 100 µM
TGI (HOP-18 NSCLC): > 100 µM
TGI (A549 NSCLC): > 100 µM
TGI (IGROV1 ovarian): > 100 µM
TGI (SK-MEL-28 melanoma): > 100 µM
TGI (U251 CNS): 67.9 µM
TGI (ACHN renal): > 100 µM
TGI (HCC-2998 colon): > 100 µM
TGI (SK-MEL-2 melanoma): > 100 µM
TGI (DMS 114 small cell lung): > 100 µM
TGI (LOX IMVI melanoma): > 100 µM
TGI (UACC-257 melanoma): > 100 µM
TGI (OVCAR-5 ovarian): > 100 µM
TGI (CAKI-1 renal): > 100 µM
TGI (CCRF-CEM leukemia): > 100 µM
TGI (EKVX NSCLC): > 100 µM
TGI (RPMI-8226 leukemia): > 100 µM
TGI (HL-60(TB) leukemia): > 100 µM
TGI (786-0 renal): > 100 µM
TGI (SF-539 CNS): > 100 µM
TGI (MALME-3M melanoma): > 100 µM
TGI (NCI-H23 lung): > 100 µM
